The values that follow come from patent US20200093123A1, “INSECTICIDAL EMULSION” (EVOLVA SA, priority 2016, published 2020).

Where two headings read alike, the source gives them in different places.

One series has as its system deer ticks. Put plainly: Nootkatone residue on filter paper (Example 13). Format: in vivo, deer tick. The note with it: 1% w/v nootkatone in ethanol dried on filter paper; at 72 hours. How it is done: (§1) Method: Nootkatone was solubilized in ethanol to a concentration of 1% w/v. The nootkatone solution, or solvent (ethanol) alone as a negative control, was applied directly to filter paper using a micropipette, in an amount of 1 mL for a 9 cm filter paper disc. Filter papers were allowed to dry completely before being cut to the appropriate size prior to the start of the test. Treated and untreated filter papers were cut so that they covered the bottom of a suitable container for each test species (see Table No. 4, below). At each observation period, arthropods were classified as alive, knocked down (KD) or dead.
(§2) Observation Methods: • a. […] Definitions of “Alive”, “Knockdown (KD)”, and “Dead” are as defined above.

A further series has as its system aphids. Kind of series: Nootkatone residue on filter paper (Example 13). As to conditions: 1% w/v nootkatone in ethanol dried on filter paper; mortality reached at 24 hours. Format: in vivo, aphid. As to the method: as §1, §2
For series [1], the system named is mosquito pupae. Put plainly: Mosquito pupae killing (Example 8, previous testing). Format: in vivo, Aedes aegypti or Anopheles quadrimaculatus. As to conditions: 0.03% nootkatone/1% ethanol; within 24 hours. As to the method:
Pupae preparation. Eggs of Aedes aegypti or Anopheles quadrimaculatus were purchased from a commercial supplier. Eggs were hatched in sterile MilliQ water and fed with finely ground Tetramin® fish food until they developed into pupae.
Pupae experiments. Clean, glass 600 mL beakers were washed and thoroughly rinsed prior to use as test containers. On testing days, pupae were removed from dishes used to grow larvae. Replicates of 10 pupae each were randomly assigned to glass beakers in a volume of 100 mL of sterile MilliQ water, and a treatment (see “Treatments” below) is added. A minimum of three control replicates and 4 treated replicates were tested on more than one day. The beakers were then covered lightly with Kimwipes®, secured by rubber bands to prevent escape of adults. The beakers were observed after 24 hours, and the numbers of live pupae, dead pupae, live adults, and dead adults were recorded.
Treatments. An aliquot of 0.5-1 mL of formulations such as those used in Example 1 was added to each test beaker. Control beakers consist of 100 mL of sterile MilliQ water.

A further series has as its system biting midges. Put plainly: Nootkatone residue on filter paper (Example 13). As to conditions: 1% w/v nootkatone in ethanol dried on filter paper; mortality reached at 24 hours. Format: in vivo, biting midge. How it is done:
as §1, §2

For the next series, the system named is fire ants. Kind of series: Nootkatone residue on filter paper (Example 13). Format: in vivo, fire ant. How it is done:
as §1, §2

Series [2] has as its system mosquito pupae. Put plainly: Prevention of adult emergence from pupae (Example 9, previous testing). Format: in vivo, Aedes aegypti or Anopheles quadrimaculatus. The note with it: 0.015% nootkatone/0.5% ethanol (v/v) in water for 48 hours. The text has this:
Pupae preparation. Eggs of Aedes aegypti or Anopheles quadrimaculatus were purchased from a commercial supplier. They were hatched in sterile MilliQ water and fed with finely ground TetraMin® fish food (fish meal, dried yeast, ground brown rice, shrimp meal, wheat gluten, feeding oat meal, fish oil, potato protein, dehulled soybean meal, soybean oil, algae meal, sorbitol, lecithin, monobasic calcium phosphate, ascorbic acid, yeast extract, inositol, niacin, L-ascorbyl-2-polyphosphate, riboflavin-5-phosphate, α-tocopherol-acetate, d-calcium pantothenate, thiamine mononitrate, pyridoxine hydrochloride, vitamin A palmitate, menadione sodium bisulfite complex, biotin, vitamin B12 supplement, cholcalciferol, manganese sulfate monohydrate, zinc sulfate monohydrate, ferrous sulfate monohydrate, cobalt acetate) until they developed into pupae.
Pupae experiments. Clean, glass 600 mL beakers were washed and thoroughly rinsed prior to use as test containers. On each of four testing days, pupae were removed from dishes used to grow larvae. Replicates of 10 pupae each were randomly assigned to glass beakers in a volume of 100 mL of sterile MilliQ water, and a treatment (see “Treatments” below) is added. The beakers are then covered lightly with Kimwipes® and secured by rubber bands to prevent escape of adults. […]
Treatments. […]

Series [3] deals with yellow fever mosquitoes (Aedes aegypti) adults. Put plainly: whole plant or invertebrate. As to conditions: 1% w/v nootkatone in ethanol dried on filter paper, mortality reached at 24 hours. Format: in vivo. As to the method:
as §1, §2

The test system of series [4] is Aedes aegypti New Orleans strain adults. Format: in vivo. As to the method: (§3) Method: Nootkatone was solubilized in acetone to a concentration of 1%, 0.607%, 0.368%, 0.224%, 0.136%, 0.082%, and 0.05%. 0.5 mL of solution was dispensed into a 5 cm diameter glass Petri dish for each replicate to be tested, using a fume hood and appropriate personal protective equipment. Liquid was dispensed to ensure that the entire base of the dish was covered with solution. Dishes were transferred to an orbital shaker set at a speed of 200 revolutions per minute. The dishes were shaken for 15 minutes to ensure even distribution on the surface of the plate. Control dishes were prepared in the same way using 0.5 mL of acetone without nootkatone. Dishes were allowed to dry for 4 hours before use. Dishes were stored at 4° C. until use. Groups of 10 adult female mosquitoes, 2-5 days old, were gently aspirated into a transfer pot system, and were then gently tapped out onto the surface of the treated or control Petri dishes. Although attempts are made to have groups of exactly 10 mosquitoes, group size could vary. Groups of more than 15 mosquitoes were excluded from testing, due to overcrowding. The opening to the dishes through which the mosquitoes were introduced was covered with parafilm to prevent escape. After 30 minutes of exposure to the Petri dishes, mosquitoes were transferred to paper cups for additional observation. They were supplied with 10% sucrose solution ad libitum. Three replicates, or 30 total adult female mosquitoes were tested for each concentration of nootkatone in acetone, and for the acetone-only controls. The mosquitoes tested were either the Aedes aegypti New Orleans strain, or Anopheles gambiae Kisumu strain.
as §2

The test system of series [5] is Anopheles gambiae Kisumu strain adults. Format: in vivo. How it is done:
as §3, §2

In a further series the test system is Aedes aegypti larvae. Put plainly: Duration of larvicidal protection in treated water (Example 7). The note with it: 0.03% nootkatone/1% ethanol in water; larvae added 3-7 days after the water was treated; within 24 hours. Format: in vivo.
In series [6] the test system is Asian tiger mosquitoes (Aedes albopictus). Put plainly: Nootkatone residue on filter paper (Example 13). As to conditions: 24 h. Format: in vivo. How it is done: as §1, §2
Series [7] has as its system southern house mosquitoes (Culex quinquefasciatus). Put plainly: Nootkatone residue on filter paper (Example 13). Format: in vivo. The note with it: 24 h. As to the method:
as §1, §2

Series [8] has as its system common malaria mosquitoes (Anopheles quadrimaculatus). Put plainly: Nootkatone residue on filter paper (Example 13). Format: in vivo. As to conditions: 24 h. How it is done: as §1, §2
Another series has as its system termites. Put plainly: Nootkatone residue on filter paper (Example 13). Format: in vivo, termite. The note with it: 1% w/v nootkatone in ethanol dried on filter paper; at 72 hours. How it is done: as §1, §2
The conditions of series [9]: rats; cited from earlier work.
For series [10] the following is noted: partially soluble in water; cited from earlier work.
Series [11] concerns Aedes aegypti adult female mosquitoes. Kind of series: Arm over cage contact repellency, geraniol/co-solvent formulations (Example 18). As to conditions: about 0.3 mL on collagen membrane aged one hour; 5 minute count; average of 4 replicates. Format: in vivo. As to the method: Twenty five Aedes aegypti adult female mosquitoes were introduced into a 1 ft×1 ft×1 ft cage. The mosquitoes were starved for at least 2 hours before repellency testing. The test formulation or control substance (see “Treatments”) was applied at a rate of approximately 0.3 mL onto a dampened collagen membrane (2.5 inches by 6 inches) to mimic the effect of skin, and the membrane was allowed to age for one hour while resting on a damp cloth. An untreated, dampened collagen membrane was placed on a mesh opening at the top of the test cage, and a researcher's arm was suspended -1/4 inch above the membrane to act as an attractant. The numbers of landings and probings of the untreated membrane were counted during a 5 minute period, and these counts were used as the baseline level of activity for that specific replicate of mosquitoes. Immediately after the baseline count, an aged, treated membrane was placed on top of the cage, and the numbers of landings and probings of the treated membrane were counted during a 5 minute period for the same replicate of mosquitoes. […] Repellency was calculated as one minus the ratio of the average number of probings or landings using the treated membrane divided by the average number of probings or landings using the untreated membrane from the same cages over the same four replicates of mosquitoes. […]

Consider `C=C(C)[C@@H]1CCC2=CC(=O)C[C@@H](C)[C@]2(C)C1` [nootkatone], for which the Mortality % with deer ticks is reported as 98%; in the series with aphids, 94%; in the series with biting midges, 100%; in the series with fire ants (1% w/v nootkatone in ethanol dried on filter paper, at 72 hours (table, no asterisk)) it was 100%; in the series with termites, 90%. The “pupae died, average” value in the series with mosquito pupae [1] amounted to 94%. The “pupae died, one experiment” value with mosquito pupae [1] worked out at 93%. Besides, the “pupae died, second day of testing” value with mosquito pupae [1] was determined as 95%. Further, the killed with fire ants (1% nootkatone dried on filter paper, within 24 hours) was 100%. Further, the “surviving adults eclosed from pupae” value in the series with mosquito pupae [2] is “no surviving adults”. For the same molecule, the mortality at 1 % strength in series [3] amounted to 100%; in series [6] it was 98%; in [7], 98%; in [8] it was 98%. Moreover, the adults knocked down worked out at 47% in series [4] (residue of 0.5 mL 0.136% nootkatone in acetone on 5 cm glass dish, within 30 minutes) and 41% in series [5] (residue of 0.5 mL 0.082% nootkatone in acetone on 5 cm glass dish, within 30 minutes). Also, the mortality was found to be 89% in [4] (residue of 1% nootkatone in acetone, 30 minutes exposure, 24 hours after treatment); 100% in [5] (residue of 0.607% nootkatone, 24 hours after treatment); 100% in series [5] (residue of 1% nootkatone, 24 hours after treatment). The “nootkatone concentration required to obtain significant mortality” value in [4] (residue on glass dish, 30 minutes exposure, 24 hours after treatment) stood at 0.224%. Moreover, the adults killed in [5] (residue of 0.082% nootkatone, 24 hours after treatment) is recorded as 50%. The molecule also gave a larvae killed with Aedes aegypti larvae of 100%.
For the molecule `OCc1ccccc1` [benzyl alcohol], the LD50 in [9] is 1200 mg/kg. The solubility in water in [10] was 4 g/100 ml.
Regarding `CCN(CC)C(=O)c1cccc(C)c1` [20% DEET in ethanol, N,N-Diethyl-meta-toluamide], in [11], the repellency against landings was 98% and the “repellency against probings (bites)” value was determined as 100%.

In general, mortality refers to the share of the test organisms that died. High values mean fewer survivors, low ones more survivors. By LD50 is commonly meant the dose at which mortality reaches 50%.
